In one test the target is IDH1 R132H (Homo sapiens, UniProt O75874, R132H). Briefly: Assay for IDH1 R132H inhibitors (NADPH/aKG, resazurin detection). Format: biochemical. To be noted: enzyme assay of Example 12; read-out: IDH1R132H IC50. The gist of the method: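 Read-out is resorufin fluorescence (Ex544/Em590) 5 min after adding a 30 μM resazurin detection mix. Before that, mutant enzyme (0.2 μg/ml in its mix) ran 50 min at room temperature with compound, 8 uM NADPH and 2 mM aKG (mix levels) in Tris pH 7.5 with NaCl, MgCl2, BSA.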
Chain of IDH1 R132H (O75874 whole entry R132H): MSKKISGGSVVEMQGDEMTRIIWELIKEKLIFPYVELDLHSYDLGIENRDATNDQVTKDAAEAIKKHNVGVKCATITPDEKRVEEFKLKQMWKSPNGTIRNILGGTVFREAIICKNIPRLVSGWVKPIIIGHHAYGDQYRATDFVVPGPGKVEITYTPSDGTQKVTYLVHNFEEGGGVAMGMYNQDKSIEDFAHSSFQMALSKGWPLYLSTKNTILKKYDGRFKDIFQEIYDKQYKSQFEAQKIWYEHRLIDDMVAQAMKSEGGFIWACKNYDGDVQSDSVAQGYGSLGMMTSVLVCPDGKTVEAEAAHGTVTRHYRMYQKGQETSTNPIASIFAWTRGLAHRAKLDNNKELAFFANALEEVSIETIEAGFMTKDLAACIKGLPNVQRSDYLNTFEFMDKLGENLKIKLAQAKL

The test system of the next test is HT1080 cells. Briefly: Cellular assay for IDH1m inhibitors: inhibition of 2-HG production (LC-MS, 48 hours) in HT1080 cells. To be noted: Homo sapiens, HT-1080; inhibition of 2-HG production, HT1080 cells; read-out: HT1080 IC50. Format: cell-based. The procedure: Cells (e.g., HT1080 or U87MG) and are grown in T125 flasks in DMEM containing 10% FBS, 1× penicillin/streptomycin and 500 ug/mL G418. They are harvested by trypsin and seeded into 96 well white bottom plates at a density of 5000 cell/well in 100 ul/well in DMEM with 10% FBS. No cells are plates in columns 1 and 12. Cells are incubated overnight at 37° C. in 5% CO2. The next day compounds are made up at 2× concentration and 100 ul are added to each cell well. The final concentration of DMSO is 0.2% and the DMSO control wells are plated in row G. The plates are then placed in the incubator for 48 hours. At 48 hours, 100 μl of media is removed from each well and analyzed by LC-MS for 2-HG concentrations. The cell plate is placed back in the incubator for another 24 hours. At 72 hours post compound addition, 10 mL/plate of Promega Cell Titer Glo reagent is thawed and mixed. The cell plate is removed from the incubator and allowed to equilibrate to room temperature. Then 100 ul of reagent is added to each well of media. The cell plate is then placed on an orbital shaker for 10 minutes and then allowed to sit at room temperature for 20 minutes. The plate is then read for luminescence with an integration time of 500 ms.
The IC50 for inhibition of 2-HG production (concentration of test compound to reduce 2HG production by 50% compared to control) in these two cell lines for various compounds of formula I is set forth in Table 4 above.

On to `C=Cc1ccc(-c2cc(C#N)c(N3CCN(C(=O)CCOC)[C@H](C)C3)nc2C2CC2)cn1` [Compound 620, (R)-2-cyclopropyl-6-(4-(3-methoxypropanoyl)-3-methylpiperazin-1-yl)-6′-vinyl-3,3′-bipyridine-5-carbonitrile], for which the IC50 at IDH1 R132H and with HT1080 cells was less than 0.5 µM throughout.
For `C=Cc1cc(-c2cc(C#N)c(N3CCN(C(=O)CCOC)[C@H](C)C3)nc2C2CC2)cc(OC)n1` [Compound 622, (R)-2-cyclopropyl-2′-methoxy-6-(4-(3-methoxypropanoyl)-3-methylpiperazin-1-yl)-6′-vinyl-[3,4′-bipyridine]-5-carbonitrile], the IC50 – broadly, the concentration at which inhibition is half-maximal – fell in the range of 0.5 to 1 µM on IDH1 R132H and 1 to 10 µM in the test on HT1080 cells.
On the same counts, the results for `C=Cc1cc(-c2cc(C#N)c(N3CCN(C(=O)CCOC)[C@H](C)C3)nc2C2CC2)cc(C=C)n1` [Compound 624, (R)-2-cyclopropyl-6-(4-(3-methoxypropanoyl)-3-methylpiperazin-1-yl)-2′,6′-divinyl-[3,4′-bipyridine]-5-carbonitrile] are less than 0.5 µM and less than 0.5 µM.
On the same counts, the results for `C=C(CO)c1cc(-c2cc(C#N)c(N3CCN(C(=O)CCOC)[C@H](C)C3)nc2C2CC2)ccn1` [Compound 653, (R)-2-cyclopropyl-2′-(3-hydroxyprop-1-en-2-yl)-6-(4-(3-methoxypropanoyl)-3-methylpiperazin-1-yl)-[3,4′-bipyridine]-5-carbonitrile] are less than 0.5 µM and less than 0.5 µM.
On to `C=Cc1cc(-c2cc(C#N)c(N3CCN(C(=O)CCO)[C@H](C4CC4)C3)nc2C2CC2)c2cccnc2n1` [Compound 655, (R)-6-cyclopropyl-2-(3-cyclopropyl-4-(3-hydroxypropanoyl)piperazin-1-yl)-5-(2-vinyl-1,8-naphthyridin-4-yl)nicotinonitrile], for which the IC50 on IDH1 R132H and with HT1080 cells was less than 0.5 µM each time.
Consider `C=Cc1cc(N(C(C)=O)c2cc(C#N)c(N3CCN(C(=O)CCOC)[C@H](C)C3)nc2C2CC2)ccn1` [Compound 662, (R)—N-(5-cyano-2-cyclopropyl-6-(4-(3-methoxypropanoyl)-3-methylpiperazin-1-yl)pyridin-3-yl)-N-(2-vinylpyridin-4-yl)acetamide], for which the IC50 at IDH1 R132H and in the test on HT1080 cells was less than 0.5 µM each time.
For the compound `C=Cc1cc(-c2cc(C#N)c(N3CCN(C(=O)C4(O)CC4)[C@H](C)C3)nc2C2CC2)ccn1` [Compound 664, (R)-2-cyclopropyl-6-(4-(1-hydroxycyclopropanecarbonyl)-3-methylpiperazin-1-yl)-2′-vinyl-3,4′-bipyridine-5-carbonitrile], the IC50 at IDH1 R132H and in the test with HT1080 cells was less than 0.5 µM throughout.
With `COCCC(=O)N1CCN(c2nc(C3CC3)c(Oc3ccnc(Cl)c3)cc2C#N)C[C@H]1C` [Compound 668, (R)-5-((2-chloropyridin-4-yl)oxy)-6-cyclopropyl-2-(4-(3-methoxypropanoyl)-3-methylpiperazin-1-yl)nicotinonitrile], the concentration for half-maximal inhibition (IC50) on IDH1 R132H is less than 0.5 µM; in the test with HT1080 cells, 0.5 to 1 µM.
Consider `C=Cc1nc(-c2cc(C#N)c(N3CCN(C(=O)C4CC4)[C@H](C4CC4)C3)nc2C2CC2)c2ccccc2n1` [Compound 669, (R)-2-(4-(cyclopropanecarbonyl)-3-cyclopropylpiperazin-1-yl)-6-cyclopropyl-5-(2-vinylquinazolin-4-yl)nicotinonitrile], for which the half-maximal inhibitory concentration (IC50) at IDH1 R132H and in the test on HT1080 cells was less than 0.5 µM throughout.
For the compound `C=Cc1cc(-c2cc(C#N)c(N3CCN(C(=O)CCOC)[C@H](C)C3)nc2C2CC2)cc(C#N)n1` [Compound 672, (R)-2-cyclopropyl-6-(4-(3-methoxypropanoyl)-3-methylpiperazin-1-yl)-6′-vinyl-[3,4′-bipyridine]-2′,5-dicarbonitrile], the results for the IC50 on IDH1 R132H and in the test with HT1080 cells were 0.5 to 1 µM and 1 to 10 µM, respectively.
On the same counts, the results for `N#Cc1cc(Nc2ccnc(Cl)c2)c(C2CC2)nc1N1CCN(C(=O)CCO)[C@H](C2CC2)C1` [Compound 677, (R)-5-((2-chloropyridin-4-yl)amino)-6-cyclopropyl-2-(3-cyclopropyl-4-(3-hydroxypropanoyl)piperazin-1-yl)nicotinonitrile] are less than 0.5 µM and less than 0.5 µM.
On to `COCCC(=O)N1CCN(c2nc(C3CC3)c(Nc3ccnc(Cl)c3)cc2C#N)C[C@H]1C1CC1` [Compound 679, (R)-5-((2-chloropyridin-4-yl)amino)-6-cyclopropyl-2-(3-cyclopropyl-4-(3-methoxypropanoyl)piperazin-1-yl)nicotinonitrile], for which the IC50 at IDH1 R132H and with HT1080 cells was less than 0.5 µM in each case.
As to `C=CC(=O)N1CCC=C(c2c(C3CC3)nc(N3CCN(C(=O)CCOC)[C@H](C)C3)c(C#N)c2C)C1` [Compound 680, (R)-5-(1-acryloyl-1,2,5,6-tetrahydropyridin-3-yl)-6-cyclopropyl-2-(4-(3-methoxypropanoyl)-3-methylpiperazin-1-yl)-4-methylnicotinonitrile], the IC50 on IDH1 R132H and in the test on HT1080 cells was less than 0.5 µM in each case.
On to `C=Cc1cc(Cc2cc(C#N)c(N3CCN(C(=O)C4CC4)[C@H](C4CC4)C3)nc2C2CC2)ccn1` [Compound 684, (R)-2-(4-(cyclopropanecarbonyl)-3-cyclopropylpiperazin-1-yl)-6-cyclopropyl-5-((2-vinylpyridin-4-yl)methyl)nicotinonitrile], for which the IC50 on IDH1 R132H and in the test with HT1080 cells was less than 0.5 µM each time.
Turning to `C=CC(=O)N(c1cc(C#N)c(N2CCN(C(=O)CCOC)[C@H](C)C2)nc1C1CC1)c1ccnc2ccccc12` [Compound 712, (R)—N-(5-cyano-2-cyclopropyl-6-(4-(3-methoxypropanoyl)-3-methylpiperazin-1-yl)pyridin-3-yl)-N-(quinolin-4-yl)acryl amide], the half-maximal inhibitory concentration (IC50) on IDH1 R132H is less than 0.5 µM; in the test on HT1080 cells, 1 to 10 µM.
Take `C=Cc1cc(Nc2c(C3CC3)nc(N3CCN(C(=O)CCOC)[C@H](C(C)C)C3)c(C#N)c2C)ccn1` [Compound 807, (R)-6-cyclopropyl-2-(3-isopropyl-4-(3-methoxypropanoyl)piperazin-1-yl)-4-methyl-5-((2-vinylpyridin-4-yl)amino)nicotinonitrile]: the IC50 at IDH1 R132H and with HT1080 cells was less than 0.5 µM in each case.
`N#Cc1ccnc(Nc2cc(C#N)c(N3CCN(C(=O)C[C@H]4CCO4)[C@H](C4CC4)C3)nc2C2CC2)n1` [Compound 808, 2-(5-cyano-2-cyclopropyl-6-((R)-3-cyclopropyl-4-(2-((R)-oxetan-2-yl)acetyl)piperazin-1-yl)pyridin-3-ylamino)pyrimidine-4-carbonitrile]: the IC50 at IDH1 R132H and in the test on HT1080 cells was less than 0.5 µM each time.
Regarding `N#Cc1ccnc(Nc2cc(C#N)c(N3CCN(C(=O)C[C@H]4CCO4)[C@H](C4CC4)C3)nc2C2CC2)c1` [Compound 809, 5-(4-cyanopyridin-2-ylamino)-6-cyclopropyl-2-((R)-3-cyclopropyl-4-(2-((R)-oxetan-2-yl)acetyl)piperazin-1-yl)nicotinonitrile], the IC50 at IDH1 R132H and in the test with HT1080 cells was less than 0.5 µM each time.
`C=Cc1ccnc(Nc2cc(C#N)c(N3CCN(C(=O)CCCO)[C@H](C4CC4)C3)nc2C2CC2)c1` [Compound 815, (R)-6-cyclopropyl-2-(3-cyclopropyl-4-(4-hydroxybutanoyl)piperazin-1-yl)-5-((4-vinylpyridin-2-yl)amino)nicotinonitrile]: the IC50 on IDH1 R132H and with HT1080 cells was less than 0.5 µM in each case.
Regarding `C=Cc1ccnc(Nc2cc(C#N)c(N3CCN(C(=O)CC4CCC4)[C@H](C4CC4)C3)nc2C2CC2)c1` [Compound 817, (R)-2-(4-(2-cyclobutylacetyl)-3-cyclopropylpiperazin-1-yl)-6-cyclopropyl-5-((4-vinylpyridin-2-yl)amino)nicotinonitrile], the half-maximal inhibitory concentration (IC50) on IDH1 R132H and in the test on HT1080 cells was less than 0.5 µM in each case.
Consider `C=Cc1cc(-c2cc(C#N)c(N3CCN(C(=O)CN4CCC4=O)[C@H](C4CC4)C3)nc2C2CC2)ccn1` [Compound 818], for which the IC50 on IDH1 R132H and with HT1080 cells was less than 0.5 µM in each case.
With `C=Cc1cc(-c2c(C3CC3)nc(N3CCN(C(=O)CC4CCC4)[C@H](C4CC4)C3)c(C#N)c2C)ccn1` [Compound 819, (R)-6-(4-(2-cyclobutylacetyl)-3-cyclopropylpiperazin-1-yl)-2-cyclopropyl-4-methyl-2′-vinyl-3,4′-bipyridine-5-carbonitrile], the IC50 at IDH1 R132H and in the test with HT1080 cells was less than 0.5 µM throughout.
Regarding `C=Cc1cc(-c2cc(C#N)c(N3CCN(C(=O)C[C@H]4CCCO4)[C@H](C4CC4)C3)nc2C2CC2)ccn1` [Compound 822], the IC50 on IDH1 R132H and with HT1080 cells was less than 0.5 µM in each case.
For `C=Cc1cc(-c2c(C3CC3)nc(N3CCN(C(=O)C[C@H]4CCO4)[C@H](C4CC4)C3)c(C#N)c2CC)ccn1` [Compound 823, 2-cyclopropyl-6-((R)-3-cyclopropyl-4-(2-((R)-oxetan-2-yl)acetyl)piperazin-1-yl)-4-ethyl-2′-vinyl-[3,4′-bipyridine]-5-carbonitrile], the IC50 at IDH1 R132H and in the test on HT1080 cells was less than 0.5 µM in each case.

Values taken from patent US9856279B2 (AGIOS PHARMACEUTICALS, INC, priority 2011, dated 2018).
